Here are results for 7 compounds from patent US6392098B1, “Conformationally restricted polyamines” (Wisconsin Alumni Research Foundation, priority 1997, dated 2002).

Series [1] has as its system brain cancer cells U251MG-NCI. Put plainly: Growth of U251MG-NCI cells at fixed drug concentration (viable cells over days). The series is classed as cell-based, human. Here is the method:
FIGS. 7 and 8 depict the effect of fixed doses of 10 μM and 40 μM of the subject compounds, respectively, on the growth of the human brain cancer cell line U251MG-NCI. Here, the X-axis represents time in days, and the Y-axis represents the total number of viable cells.
Human breast cancer cell line MCF7 was grown in Richter's Improved Modified Eagle's Medium supplemented with 10% fetal bovine serum (FBS) and 2.2 g/L sodium bicarbonate. Human brain cancer cell line U251MG-NCI was grown in Dulbecco's Modified Eagle's Medium supplemented with 10% FBS. Human lung cancer cell line A549 was grown in Ham's F-12K medium (Fisher Scientific, Itasca, Ill.), supplemented with 10% FBS and 2 mM L-glutamine. Human colon cancer cell line HT29 was cultured in McCoy's 5A medium (Gibco, BRL, Gaithersburg, Md.), supplemented with 10% FBS. Human prostate cancer cell line PC3 was grown in Dulbecco's Modified Eagles Medium supplemented with 5% FBS. The A549 and MCF7 cell lines were cultured in 100 units/mL penicillin and 100 μg/mL streptomycin. HT29 and U251MG cell lines were grown in 50 μg/mL gentamycin. PC3 cell lines were maintained in 1% antibiotic-antimycotic solution (Sigma, St. Louis, Mo.). […]
Here, the above-identified compounds were administered in a 10 μM dose to cultures of the human brain cancer cell line U251MG-NCI and evaluated according to the standard protocol described above. […]

Series [2] concerns human brain cancer cells U251 MG. Put plainly: MTT cell survival assay, U251MG NCI. The note with it: six days after drug treatment, read-out: Cytotoxic Activity Human Tumor Cell Lines ID50 U251MG NCl. Type of series: cell-based. The procedure:
Human breast cancer cell line MCF7 was grown in Richter's Improved Modified Eagle's Medium supplemented with 10% fetal bovine serum (FBS) and 2.2 g/L sodium bicarbonate. Human brain cancer cell line U251MG-NCI was grown in Dulbecco's Modified Eagle's Medium supplemented with 10% FBS. […] Human prostate cancer cell line PC3 was grown in Dulbecco's Modified Eagles Medium supplemented with 5% FBS. […] The cell cultures were maintained at 37° C. in 5% CO2/95% humidified air.
Here, a conventional MTT assay was used to evaluate percent cell survival. Exponentially growing monolayer cells were plated in 96-well plates at a density of 500 cells per well and allowed to grow for 24 hours. Serial dilutions of the drugs were added to the wells. Six days after drug treatment, 25 μl of MTT solution (5 mg/ml) was added to each well and incubated for 4 hours at 37° C. Then 100 μl of lysis buffer (20% sodium dodecyl sulfate, 50% DMF, and 0.8% acetic acid, pH 4.7) was added to each well and incubated for an additional 22 hours. A microplate reader (“EMAX”-brand, Molecular Devices, Sunnyvale, Calif.) set at 570 nm was used to determine the optical density of the cultures. Results are expressed as a ratio of the optical density in drug-treated wells to the optical density in wells treated with vehicle only.
The ID50 is the drug concentration that killed 50% of the cultured cells.
In general terms: Tetrazolium dyes change colour on reduction, which living cells bring about.

Where a name gives a salt, the structure may show the parent alone.

As to `CCNCCCNC[C@@H]1C[C@@H]1CNCCCNCC` (as salt: hydrochloride) [SL-11037, N-Ethyl-N′-(2-(3′-ethylamino-propylaminomethyl)-cis-cyclopropylmethyl)-propane 1,3-diamine tetrahydrochloride], the melting point (as a rule, the temperature, or range, at which the solid turns liquid) was 240 °C (dec.).
The same measure, in the same setting: as for `CCNCCCNCC1CC1CNCCCNCC` (stereo not drawn) (as salt: hydrochloride) [SL-11038, N-Ethyl-N′-(2-(3′-ethylamino-propylaminomethyl)-trans-cyclopropylmethyl)-propane-1,3-diamine tetrahydrochloride], the figure is 270 °C (dec.); as for `CCNCCCNC[C@H]1CC[C@H]1CNCCCNCC` (as salt: hydrochloride) [SL-11043, N-Ethyl-N′-(2-(3′-ethylamino-propylaminomethyl)-cis-cyclobutylmethyl)-propane1,3-diamine tetrahydrochloride], 92 to 93 °C; as for `CCNCCCNCC1CCC1CNCCCNCC` (stereo not drawn) (as salt: hydrochloride) [SL-11044, N-Ethyl-N′-(2-(3′-ethylamino-propylaminomethyl)-trans-cyclobutylmethyl)-propane1,3-diamine tetrahydrochloride], 77 to 78 °C.
Take `CCNCCCNC1CC1NCCCNCC` (centres unmarked) [SL-11027]: the melting point was 240 °C (dec.). The “effect on growth of U251MG-NCI cells” value in series [1] (10 μM concentration) is reported as “marked inhibition of cell growth”.
Consider `CCNCCCNC1CCC1NCCCNCC` (centres unmarked) [SL-11034], for which the “effect on growth of U251MG-NCI cells” value in series [1] (40 μM concentration) is reported as “marked inhibition of cell growth”.
For the compound `CCNCCCNCC1CC1CNCCCNCC` (stereo not drawn) [SL-11038, N-Ethyl-N′-(2-(3′-ethylamino-propylaminomethyl)-trans-cyclopropylmethyl)-propane-1,3-diamine tetrahydrochloride], the IC50 in series [2] is 100 nM.
